Laboratory results as given in US20200270309A1, “MALEIMIDE GROUP-MODIFIED ANGIOGENESIS INHIBITOR HM-1 AND USE THEREOF” (NANJING ANJI BIOLOGICAL TECHNOLOGY CO., LTD, priority 2017, published 2020).
Marks after values point to notes of the source that are not given here. Peptide text beside a SMILES is read from it. * marks the point of attachment. X59 = O=C1C=CC(=O)N1c1cccc(CCCCCCCCC(=O)*)c1; X72 = O=C1C=CC(=O)N1c1ccccc1CCCCCCCCCCC(=O)*; X55 = O=C1C=CC(=O)N1c1ccccc1CCCCCCCCC(=O)*; X79 = O=C1C=CC(=O)N1c1cccc(CCC(=O)*)c1

Legend:
[1] = system: carrageenan-induced toe swelling; assay: Carrageenan-induced toe swelling in rats; format: in vivo; details: SD rats; for Swelling degree 1 h: 1 h after carrageenan; for Swelling degree 3 h: 3 h after carrageenan; for Swelling degree 5 h: 5 h after carrageenan; for Swelling degree 7 h: 7 h after carrageenan
Procedure, shortened: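 Paw swelling, in mL, is the post-inflammation minus pre-inflammation volume of the right hind foot, read as overflow liquid when immersed to a pen-marked joint. Treatment was daily injection over 3 d; model group received saline of the same volume.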

[2] = system: human retinal capillary endothelial cells (HRCECs); assay: MTT proliferation inhibition on HRCECs; format: cell-based; details: 48 h; for A570 nm-A630 nm: mean±SD
Procedure, shortened: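 HRCECs seeded at 3.0×10^4 cells/mL, adhered overnight, then exposed to polypeptide for 48 h at 37 °C, 5% CO2. MTT added 4 h, formazan dissolved in DMSO, absorbance 570/630 nm; PIR (%) = 1 − treated/negative control, mean±SD of three independent runs.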

splenic lymphocytes = assay: Proliferation of splenic lymphocytes in mice (ConA, MTT); format: cell-based; details: ConA-stimulated mouse splenic lymphocytes, 48 h
Procedure, shortened: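 Proliferation read as OD 570 nm after 4 h MTT and DMSO solubilisation, five parallel wells. Before that, ConA-stimulated splenic lymphocytes from mice, 5×10^6 cells/mL in 10% calf serum RPMI 1640, were cultured 48 h at 37° C. with different peptide concentrations; controls were blank, ConA alone and dexamethasone.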

adjuvant arthritis = assay: Rat adjuvant arthritis (AA) animal model; format: in vivo, SD rats; details: 4.0 mg/kg; for Clinical score: intravenous in the tail once every five days from day 10, four paws scored 0-4, max 16, mean±SD; for Joint swelling degree / Left and right paw swelling degree: intravenous in the tail once every five days from day 10, mean±SD
[3] = Half-lives and pharmacokinetic parameters of polypeptides vs HM-1; details: in vivo; for half-life: T1/2β (half-life)
[4] = system: choroidal neovascularization; assay: Choroidal neovascularization in rats (laser photocoagulation, FFA); format: in vivo; details: BN rats
Procedure, shortened: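 Male BN rats aged 6-8 weeks were given 8 krypton-laser spots around the optic disc (647.1 nm, 350 mW, 50 μm, 0.05 s). Once the model was confirmed, groups of 5 got daily intravitreal compound at 0.05 μM or saline for 1 week. FFA followed at 3, 7, 14 and 28 days after dosing.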

[5] = day 3 after administration, total light spot number was 297, 0.05 μM in the vitreous chamber once a day for 1 week
[6] = day 7 after administration, total light spot number was 186, 0.05 μM in the vitreous chamber once a day for 1 week
[7] = day 14 after administration, total light spot number was 137, 0.05 μM in the vitreous chamber once a day for 1 week
[8] = day 28 after administration, total light spot number was 69, 0.05 μM in the vitreous chamber once a day for 1 week

## C[C@H](NC(=O)CNC(=O)[C@H](CCCNC(=N)N)NC(=O)CCc1cccc(N2C(=O)C=CC2=O)c1)C(=O)N[C@@H](CC(=O)O)C(=O)N[C@@H](CCCNC(=N)N)C(=O)N[C@@H](C)C(=O)NCC(=O)NCC(=O)NCC(=O)NCC(=O)N[C@@H](CCCNC(=N)N)C(=O)NCC(=O)N[C@@H](CC(=O)O)C(=O)O [X26] (X79-RGADRAGGGGRGD-OH)
[1]; 2.0 mg/kg once a day for 3 d
  Swelling degree 1 h: 0.28 ± 0.17 mg
  Swelling degree 3 h: 0.31 ± 0.18 mg
  Swelling degree 5 h: 0.42 ± 0.11 mg
  Swelling degree 7 h: 0.39 ± 0.12 mg
[1]; 4.0 mg/kg once a day for 3 d
  Swelling degree 1 h: 0.25 ± 0.18 mg
  Swelling degree 3 h: 0.31 ± 0.13 mg
  Swelling degree 5 h: 0.40 ± 0.15 mg
  Swelling degree 7 h: 0.30 ± 0.16 mg
[2]; dose 0.05 μM
  Inhibition rate (%): 41.47%*
  A570 nm-A630 nm: 0.7736 ± 0.06908
[2]; dose 0.1 μM
  Inhibition rate (%): 48.48%**
  A570 nm-A630 nm: 0.6810 ± 0.02943
[2]; dose 0.2 μM
  Inhibition rate (%): 68.51%*
  A570 nm-A630 nm: 0.4162 ± 0.00082
Splenic lymphocytes; polypeptide dose 0.05 μM
  A570 nm/A630 nm: 0.5714 ± 0.1002
  Inhibition rate (%): 15.46%
Splenic lymphocytes; polypeptide dose 0.1 μM
  A570 nm/A630 nm: 0.5365 ± 0.0543
  Inhibition rate (%): 20.57%
Splenic lymphocytes; polypeptide dose 0.2 μM
  A570 nm/A630 nm: 0.4991 ± 0.0743
  Inhibition rate (%): 26.10%
Adjuvant arthritis
  Clinical score: 5.65 ± 1.07
  Joint swelling degree: 0.74 ± 0.18 mm
  Left and right paw swelling degree: 3.81 ± 0.59 mm
[3]
  AUC(0-inf): 34600 ± 8340 ng·h/mL
  MRT inf: 62 ± 9.63 h
  clearance: 0.482 mL/min/kg
  half-life: 42.95 ± 0.36 h
[4]; [5]
  CNV Incidence (%): 55.22%
  Leakage Light spot number: 164
[4]; [6]
  CNV Incidence (%): 49.46%
  Leakage Light spot number: 92
[4]; [7]
  CNV Incidence (%): 45.26%
  Leakage Light spot number: 62
[4]; [8]
  CNV Incidence (%): 43.48%
  Leakage Light spot number: 30

## C[C@H](NC(=O)CNC(=O)[C@H](CCCNC(=N)N)NC(=O)CCCCCCCCCCc1ccccc1N1C(=O)C=CC1=O)C(=O)N[C@@H](CC(=O)O)C(=O)N[C@@H](CCCNC(=N)N)C(=O)N[C@@H](C)C(=O)NCC(=O)NCC(=O)NCC(=O)NCC(=O)N[C@@H](CCCNC(=N)N)C(=O)NCC(=O)N[C@@H](CC(=O)O)C(=O)O [X22] (X72-RGADRAGGGGRGD-OH)
[1]; 2.0 mg/kg once a day for 3 d
  Swelling degree 1 h: 0.24 ± 0.13 mg
  Swelling degree 3 h: 0.31 ± 0.15 mg
  Swelling degree 5 h: 0.42 ± 0.14 mg
  Swelling degree 7 h: 0.38 ± 0.18 mg
[1]; 4.0 mg/kg once a day for 3 d
  Swelling degree 1 h: 0.23 ± 0.11 mg
  Swelling degree 3 h: 0.31 ± 0.16 mg
  Swelling degree 5 h: 0.36 ± 0.13 mg
  Swelling degree 7 h: 0.37 ± 0.13 mg
[2]; dose 0.05 μM
  Inhibition rate (%): 49.30%*
  A570 nm-A630 nm: 0.6701 ± 0.07545
[2]; dose 0.1 μM
  Inhibition rate (%): 64.15%**
  A570 nm-A630 nm: 0.4738 ± 0.00344
[2]; dose 0.2 μM
  Inhibition rate (%): 66.52%*
  A570 nm-A630 nm: 0.4425 ± 0.04816
Splenic lymphocytes; polypeptide dose 0.05 μM
  A570 nm/A630 nm: 0.5694 ± 0.0561
  Inhibition rate (%): 15.69%
Splenic lymphocytes; polypeptide dose 0.1 μM
  A570 nm/A630 nm: 0.4603 ± 0.0873
  Inhibition rate (%): 31.85%
Splenic lymphocytes; polypeptide dose 0.2 μM
  A570 nm/A630 nm: 0.4521 ± 0.1194
  Inhibition rate (%): 33.06%
Adjuvant arthritis
  Clinical score: 5.67 ± 1.12
  Joint swelling degree: 0.83 ± 0.14 mm
  Left and right paw swelling degree: 3.92 ± 0.18 mm
[3]
  AUC(0-inf): 28200 ± 7980 ng·h/mL
  MRT inf: 50.5 ± 13.6 h
  clearance: 0.59 mL/min/kg
  half-life: 35.03 ± 0.27 h
[4]; [5]
  CNV Incidence (%): 53.87%
  Leakage Light spot number: 160
[4]; [6]
  CNV Incidence (%): 47.85%
  Leakage Light spot number: 89
[4]; [7]
  CNV Incidence (%): 43.80%
  Leakage Light spot number: 60
[4]; [8]
  CNV Incidence (%): 37.68%
  Leakage Light spot number: 26

## C[C@H](NC(=O)CNC(=O)[C@H](CCCNC(=N)N)NC(=O)CCCCCCCCc1cccc(N2C(=O)C=CC2=O)c1)C(=O)N[C@@H](CC(=O)O)C(=O)N[C@@H](CCCNC(=N)N)C(=O)N[C@@H](C)C(=O)NCC(=O)NCC(=O)NCC(=O)NCC(=O)N[C@@H](CCCNC(=N)N)C(=O)NCC(=O)N[C@@H](CC(=O)O)C(=O)O [X32] (X59-RGADRAGGGGRGD-OH)
[1]; 2.0 mg/kg once a day for 3 d
  Swelling degree 1 h: 0.25 ± 0.18 mg
  Swelling degree 3 h: 0.35 ± 0.13 mg
  Swelling degree 5 h: 0.36 ± 0.12 mg
  Swelling degree 7 h: 0.31 ± 0.17 mg
[1]; 4.0 mg/kg once a day for 3 d
  Swelling degree 1 h: 0.24 ± 0.14 mg
  Swelling degree 3 h: 0.33 ± 0.17 mg
  Swelling degree 5 h: 0.41 ± 0.15 mg
  Swelling degree 7 h: 0.35 ± 0.12 mg
[2]; dose 0.05 μM
  Inhibition rate (%): 52.91%*
  A570 nm-A630 nm: 0.6224 ± 0.08338
[2]; dose 0.1 μM
  Inhibition rate (%): 54.38%**
  A570 nm-A630 nm: 0.6030 ± 0.05575
[2]; dose 0.2 μM
  Inhibition rate (%): 69.51%*
  A570 nm-A630 nm: 0.4030 ± 0.00097
Splenic lymphocytes; polypeptide dose 0.05 μM
  A570 nm/A630 nm: 0.6117 ± 0.0672
  Inhibition rate (%): 9.43%
Splenic lymphocytes; polypeptide dose 0.1 μM
  A570 nm/A630 nm: 0.5954 ± 0.0678
  Inhibition rate (%): 11.84%
Splenic lymphocytes; polypeptide dose 0.2 μM
  A570 nm/A630 nm: 0.5428 ± 0.0408
  Inhibition rate (%): 19.63%
Adjuvant arthritis
  Clinical score: 5.81 ± 1.14
  Joint swelling degree: 0.81 ± 0.18 mm
  Left and right paw swelling degree: 3.91 ± 0.64 mm
[3]
  AUC(0-inf): 30900 ± 7750 ng·h/mL
  MRT inf: 55.3 ± 11.8 h
  clearance: 0.54 mL/min/kg
  half-life: 38.33 ± 0.31 h
[4]; [5]
  CNV Incidence (%): 54.21%
  Leakage Light spot number: 161
[4]; [6]
  CNV Incidence (%): 46.24%
  Leakage Light spot number: 86
[4]; [7]
  CNV Incidence (%): 43.07%
  Leakage Light spot number: 59
[4]; [8]
  CNV Incidence (%): 42.03%
  Leakage Light spot number: 29

## C[C@H](NC(=O)CNC(=O)[C@H](CCCNC(=N)N)NC(=O)CCCCCCCCc1ccccc1N1C(=O)C=CC1=O)C(=O)N[C@@H](CC(=O)O)C(=O)N[C@@H](CCCNC(=N)N)C(=O)N[C@@H](C)C(=O)NCC(=O)NCC(=O)NCC(=O)NCC(=O)N[C@@H](CCCNC(=N)N)C(=O)NCC(=O)N[C@@H](CC(=O)O)C(=O)O [X20] (X55-RGADRAGGGGRGD-OH)
[1]; 2.0 mg/kg once a day for 3 d
  Swelling degree 1 h: 0.25 ± 0.18 mg
  Swelling degree 3 h: 0.34 ± 0.13 mg
  Swelling degree 5 h: 0.36 ± 0.13 mg
  Swelling degree 7 h: 0.37 ± 0.12 mg
[1]; 4.0 mg/kg once a day for 3 d
  Swelling degree 1 h: 0.24 ± 0.15 mg
  Swelling degree 3 h: 0.34 ± 0.12 mg
  Swelling degree 5 h: 0.35 ± 0.16 mg
  Swelling degree 7 h: 0.35 ± 0.12 mg
[2]; dose 0.05 μM
  Inhibition rate (%): 44.28%*
  A570 nm-A630 nm: 0.7365 ± 0.05032
[2]; dose 0.1 μM
  Inhibition rate (%): 46.12%**
  A570 nm-A630 nm: 0.7121 ± 0.0349
[2]; dose 0.2 μM
  Inhibition rate (%): 60.14%*
  A570 nm-A630 nm: 0.5268 ± 0.01299
Splenic lymphocytes; polypeptide dose 0.05 μM
  A570 nm/A630 nm: 0.5977 ± 0.1129
  Inhibition rate (%): 11.50%
Splenic lymphocytes; polypeptide dose 0.1 μM
  A570 nm/A630 nm: 0.5419 ± 0.0423
  Inhibition rate (%): 19.77%
Splenic lymphocytes; polypeptide dose 0.2 μM
  A570 nm/A630 nm: 0.4947 ± 0.1213
  Inhibition rate (%): 26.75%
Adjuvant arthritis
  Clinical score: 5.74 ± 1.11
  Joint swelling degree: 0.8 ± 0.17 mm
  Left and right paw swelling degree: 3.87 ± 0.95 mm
[3]
  AUC(0-inf): 31800 ± 8320 ng·h/mL
  MRT inf: 57.1 ± 12.9 h
  clearance: 0.523 mL/min/kg
  half-life: 39.56 ± 0.28 h
[4]; [5]
  CNV Incidence (%): 52.53%
  Leakage Light spot number: 156
[4]; [6]
  CNV Incidence (%): 48.92%
  Leakage Light spot number: 91
[4]; [7]
  CNV Incidence (%): 42.34%
  Leakage Light spot number: 58
[4]; [8]
  CNV Incidence (%): 39.13%
  Leakage Light spot number: 27
